How the values were obtained:
ER stressed SCG neurons = test: Survival of tunicamycin-treated (ER stressed) SCG sympathetic neurons after microinjection; assay type: cell-based, mice; conditions: for survived neurons as % compared to neurons grown in the presence of NGF: microinjected into cytoplasm, CDNF (400); for Fold change of survived neurons compared to neurons injected with PBS: data of Table 1 divided by values of PBS
Protocol: Non-neuronal cells were removed by extensive preplating. Almost pure neurons were cultured in polyornithine/laminin (Sigma)-coated 35-mm plastic dishes in the small-size standard microislands in the Neurobasal medium and B27 supplement (Invitrogen/Gibco) in the presence of 30 ng/ml mouse nerve growth factor (NGF) (Promega) for 5-6 days. NGF was deprived by extensive washing and addition of the function-blocking anti-NGF antibodies (Roche). The neurons were pressure-microinjected with special neuronal microinjection equipment (Hellman et al., 2011; Hamner et al., 2001; Lindholm et al., 2002; Sun et al., 2001; Yu et al., 2003)(Sun et al., 2001; Sun et al., 2003). For the survival assay, all neurons on the microislands were counted in the beginning (initial number) and the end (three days) of the experiment and expressed as % of initial.
Microinjection of the sympathetic neurons was performed as described earlier (Yu, L. Y., Jokitalo, E., Sun, Y. F., Mehlen, P., Lindholm, D., Saarma, M., and Arumae, U. (2003) J Cell Biol. 163, 987-997). Plasmids for CDNF have been described earlier. Briefly, newborn mouse SCG neurons were grown with NGF (Promega) for 5-6 days then the nuclei were microinjected with the expression plasmids for full-length (FL)-CDNF and C-CDNF together with a reporter plasmid for enhanced green fluorescent protein (EGFP), using vector concentration of 10 ng/ul in each experiment. […] For protein microinjection, recombinant full length (FL)-CDNF, C-CDNF proteins in PBS at 200 ng/ul were microinjected directly into the cytoplasm together with fluorescent reporter Dextran Texas Red (MW 70000 Da) (Invitrogen, Molecular Probes) that facilitates identification of the successfully injected neurons. Next day tunicamycin (2 μM) was added, and after 3 days the living fluorescent neurons were counted. Living fluorescent (EGFP-expressing or Dextran Texas Red-containing) neurons were “blindly” counted three days later and expressed as percent of initial living fluorescent neurons counted 2-3 hours after microinjection. The experiments with plasmids were repeated on independent cultures 5 times for plasmid experiment, whereas four independent protein injection experiments were performed. On average, 50-80 neurons were successfully injected per experimental group. The results were expressed as the mean±the SEM. Data of each experimental group was compared with control plasmid PCR3.1 (vector) or PBS (in the protein injection experiments) by one-way ANOVA and post hoc Dunnett's t test. The null hypothesis was rejected at p<0.05.

dopamine neurons = test: Survival of TH-positive dopamine neurons in dissociated midbrain floor cultures; assay type: cell-based, mouse; conditions: for survived neurons as % compared to neurons grown in the presence of GDNF: 5 days; for Fold change of survived neurons compared to neurons grown without growth factors: data of Table 3 divided by values of no factor
Protocol: To study the dopamine neurons (Yu et al., 2008; Yu and Arumae, 2008), the midbrain floors were dissected from the ventral mesencephali of 13.5-d-old NMRI strain mouse embryos. Tissues were incubated with 0.5% trypsin (ICN Biomedical), then mechanically dissociated using a large fire-polished Pasteur pipette. The neurons were grown on the poly-L-ornithine-coated (Sigma) 96-well culture plates in DMEM/F12 medium (Invitrogen) containing N2 supplement (Invitrogen) in the presence or absence of GDNF (100 ng/ml) or with CDNF, MANF, C-CDNF and C-MANF polypeptides at different concentrations for five days. Same amount of the neurons were plated to each well at the beginning of the experiments. The cultures without added neurotrophic factors served as the negative control. As the midbrain cultures contain several neuronal types, the cultures were fixed and immunostained with the antibodies to tyrosine hydroxylase (TH) (Millipore), a specific marker for the dopaminergic neurons. Images of each well were scanned by CellInsight™ and immunopositive neurons were counted by CellProfiler and CellProfiler analyst software. Data are expressed as a percentage of GDNF-maintained TH-positive neurons. All experiments were repeated at least three times on the independent cultures. The results were expressed as the mean the SEM and were tested for the significance by either one-way ANOVA and Tukey's post hoc test or by two-tailed Student's t-test. The null hypothesis was rejected at P≤0.05.

[1] = Table 1A (FIG. 14), AVG of exp1-2, tunicamycin 2 μM
[2] = Table 1A (FIG. 14), exp1, tunicamycin 2 μM, counted after 3 days
[3] = Table 1A (FIG. 14), exp2, tunicamycin 2 μM, counted after 3 days
[4] = Table 3A (FIG. 15), AVG, 100 ng/ml
[5] = Table 3A (FIG. 15), exp1, 100 ng/ml
[6] = Table 3A (FIG. 15), exp2, 100 ng/ml
[7] = Table 3A (FIG. 15), exp3, 100 ng/ml

**Q.** “KYEKTLDLASVDLRKMRVAELKQILHSWGEECRACAEKTDYVNLIQELAP (listed as Homo sapiens) [pep7]” was tested. Which “survived neurons as % compared to neurons grown in the presence of NGF” value (“survived neurons as % … of NGF” below) (ER stressed SCG neurons; [1]) did it give?
**A.** 80.76 % NGF

**Q.** What about the “survived neurons as % … of NGF” value (ER stressed SCG neurons; [2]) of the same molecule?
**A.** 76.67 % NGF

**Q.** And the “survived neurons as % … of NGF” value (ER stressed SCG neurons; [3])?
**A.** 84.85 % NGF

**Q.** What about the “Fold change of survived neurons compared to neurons injected with PBS” value (“Fold change of survived neurons … with PBS” below) (ER stressed SCG neurons; Table 2, AVG) of the same molecule?
**A.** 2.19 Fold to PBS

**Q.** And the “Fold change of survived neurons … with PBS” value (ER stressed SCG neurons; Table 2, exp1)?
**A.** 2.24 Fold to PBS

**Q.** What about the “Fold change of survived neurons … with PBS” value (ER stressed SCG neurons; Table 2, exp2) of the same molecule?
**A.** 2.14 Fold to PBS

**Q.** What about the “survived neurons as % compared to neurons grown in the presence of GDNF” value (“survived neurons as % … of GDNF” below) (dopamine neurons; Table 3A (FIG. 15), AVG, 1 ng/ml) of the same molecule?
**A.** 70.12 % GDNF

**Q.** And the “survived neurons as % … of GDNF” value (dopamine neurons; Table 3A (FIG. 15), AVG, 10 ng/ml)?
**A.** 76.13 % GDNF

**Q.** And the “survived neurons as % … of GDNF” value (dopamine neurons; [4])?
**A.** 72.36 % GDNF

**Q.** What about the “survived neurons as % … of GDNF” value (dopamine neurons; Table 3A (FIG. 15), AVG, 1000 ng/ml) of the same molecule?
**A.** 79.07 % GDNF

**Q.** And the “survived neurons as % … of GDNF” value (dopamine neurons; Table 3A (FIG. 15), exp1, 1 ng/ml)?
**A.** 67.76 % GDNF

**Q.** And the “survived neurons as % … of GDNF” value (dopamine neurons; Table 3A (FIG. 15), exp1, 10 ng/ml)?
**A.** 63.47 % GDNF

**Q.** And the “survived neurons as % … of GDNF” value (dopamine neurons; [5])?
**A.** 62.89 % GDNF

**Q.** And the “survived neurons as % … of GDNF” value (dopamine neurons; Table 3A (FIG. 15), exp1, 1000 ng/ml)?
**A.** 64.02 % GDNF

**Q.** And the “survived neurons as % … of GDNF” value (dopamine neurons; Table 3A (FIG. 15), exp2, 1 ng/ml)?
**A.** 73.36 % GDNF

**Q.** And the “survived neurons as % … of GDNF” value (dopamine neurons; Table 3A (FIG. 15), exp2, 10 ng/ml)?
**A.** 83.50 % GDNF

**Q.** And the “survived neurons as % … of GDNF” value (dopamine neurons; [6])?
**A.** 79.82 % GDNF

**Q.** What about the “survived neurons as % … of GDNF” value (dopamine neurons; Table 3A (FIG. 15), exp2, 1000 ng/ml) of the same molecule?
**A.** 86.37 % GDNF

**Q.** And the “survived neurons as % … of GDNF” value (dopamine neurons; Table 3A (FIG. 15), exp3, 1 ng/ml)?
**A.** 69.24 % GDNF

**Q.** What about the “survived neurons as % … of GDNF” value (dopamine neurons; Table 3A (FIG. 15), exp3, 10 ng/ml) of the same molecule?
**A.** 81.41 % GDNF

**Q.** What about the “survived neurons as % … of GDNF” value (dopamine neurons; [7]) of the same molecule?
**A.** 74.38 % GDNF

**Q.** And the “survived neurons as % … of GDNF” value (dopamine neurons; Table 3A (FIG. 15), exp3, 1000 ng/ml)?
**A.** 86.80 % GDNF

**Q.** And the “Fold change of survived neurons compared to neurons grown without growth factors” value (dopamine neurons; Table 4, AVG, 1 ng/ml)?
**A.** 1.14 fold

**Q.** What about the “Fold change of survived neurons compared to neurons grown without growth factors” value (dopamine neurons; Table 4, AVG, 10 ng/ml) of the same molecule?
**A.** 1.23 fold

**Q.** And the “Fold change of survived neurons compared to neurons grown without growth factors” value (dopamine neurons; Table 4, AVG, 100 ng/ml)?
**A.** 1.17 fold

**Q.** What about the “Fold change of survived neurons compared to neurons grown without growth factors” value (dopamine neurons; Table 4, AVG, 1000 ng/ml) of the same molecule?
**A.** 1.28 fold

**Q.** And the “Fold change of survived neurons compared to neurons grown without growth factors” value (dopamine neurons; Table 4, exp1, 1 ng/ml)?
**A.** 1.19 fold

**Q.** What about the “Fold change of survived neurons compared to neurons grown without growth factors” value (dopamine neurons; Table 4, exp1, 10 ng/ml) of the same molecule?
**A.** 1.11 fold

**Q.** What about the “Fold change of survived neurons compared to neurons grown without growth factors” value (dopamine neurons; Table 4, exp1, 100 ng/ml) of the same molecule?
**A.** 1.10 fold

**Q.** What about the “Fold change of survived neurons compared to neurons grown without growth factors” value (dopamine neurons; Table 4, exp1, 1000 ng/ml) of the same molecule?
**A.** 1.12 fold

**Q.** And the “Fold change of survived neurons compared to neurons grown without growth factors” value (dopamine neurons; Table 4, exp2, 1 ng/ml)?
**A.** 1.16 fold

**Q.** And the “Fold change of survived neurons compared to neurons grown without growth factors” value (dopamine neurons; Table 4, exp2, 10 ng/ml)?
**A.** 1.32 fold

**Q.** What about the “Fold change of survived neurons compared to neurons grown without growth factors” value (dopamine neurons; Table 4, exp2, 100 ng/ml) of the same molecule?
**A.** 1.27 fold

**Q.** What about the “Fold change of survived neurons compared to neurons grown without growth factors” value (dopamine neurons; Table 4, exp2, 1000 ng/ml) of the same molecule?
**A.** 1.37 fold

**Q.** What about the “Fold change of survived neurons compared to neurons grown without growth factors” value (dopamine neurons; Table 4, exp3, 1 ng/ml) of the same molecule?
**A.** 1.07 fold

**Q.** What about the “Fold change of survived neurons compared to neurons grown without growth factors” value (dopamine neurons; Table 4, exp3, 10 ng/ml) of the same molecule?
**A.** 1.26 fold

**Q.** What about the “Fold change of survived neurons compared to neurons grown without growth factors” value (dopamine neurons; Table 4, exp3, 100 ng/ml) of the same molecule?
**A.** 1.15 fold

**Q.** What about the “Fold change of survived neurons compared to neurons grown without growth factors” value (dopamine neurons; Table 4, exp3, 1000 ng/ml) of the same molecule?
**A.** 1.34 fold

**Q.** How did the “survived neurons as % … of NGF” value (ER stressed SCG neurons; [1]) turn out when “cerebral dopamine neurotrophic factor [CDNF]” was run?
**A.** 88.04 % NGF

**Q.** What about the “survived neurons as % … of NGF” value (ER stressed SCG neurons; [2]) of the same molecule?
**A.** 85.71 % NGF

**Q.** What about the “survived neurons as % … of NGF” value (ER stressed SCG neurons; [3]) of the same molecule?
**A.** 90.36 % NGF

**Q.** What about the “survived neurons as % … of NGF” value (ER stressed SCG neurons; Table 1B (FIG. 16), exp1, tunicamycin 2 μM, counted after 3 days) of the same molecule?
**A.** 86.00 % NGF

**Q.** And the “survived neurons as % … of NGF” value (ER stressed SCG neurons; Table 1B (FIG. 16), exp2, tunicamycin 2 μM, counted after 3 days)?
**A.** 71.23 % NGF

**Q.** What about the “survived neurons as % … of NGF” value (ER stressed SCG neurons; Table 1B (FIG. 16), exp3, tunicamycin 2 μM, counted after 3 days) of the same molecule?
**A.** 83.33 % NGF

**Q.** And the “rescue of ER stressed SCG sympathetic neurons (result in words)” value (ER stressed SCG neurons; expressed from microinjected plasmids, tunicamycin 2 μM, living fluorescent neurons counted after three days)?
**A.** rescue

**Q.** What about the “rescue of ER stressed SCG neurons (result in words)” value (ER stressed SCG neurons; protein or peptide microinjected into the cytoplasm, tunicamycin 2 μM, living fluorescent neurons counted after 3 days) of the same molecule?
**A.** rescue

B1: glial cell line-derived neurotrophic factor (protein, UniProt P39905 78-211, looked up)
Glial cell line-derived …: SPDKQMAVLPRRERNRQAAAANPENSRGKGRRGQRGKNRGCVLTAIHLNVTDLGLGYETKEELIFRYCSGSCDAAETTYDKILKNLSRNRRLVSDKVGQACCRPIAFDDDLSFLDDNLVYHILRKHSAKRCGCI
notes: Positive control neurotrophic factor, 100 ng/ml
**Q.** Which “survived neurons as % … of GDNF” value (dopamine neurons; [4]) does the source give for B1 here?
**A.** 100 % GDNF

**Q.** And the “survived neurons as % … of GDNF” value (dopamine neurons; [5])?
**A.** 100 % GDNF

**Q.** What about the “survived neurons as % … of GDNF” value (dopamine neurons; [6]) of the same molecule?
**A.** 100 % GDNF

**Q.** And the “survived neurons as % … of GDNF” value (dopamine neurons; [7])?
**A.** 100 % GDNF

**Q.** And the “survived neurons as % … of GDNF” value (dopamine neurons; Table 3B (FIG. 17), AVG, 100 ng/ml)?
**A.** 100 % GDNF

Source: patent US12479895B2, “C-terminal CDNF and MANF fragments, pharmaceutical compositions comprising same and uses thereof” (MyNeuroCure Oy, priority 2018, dated 2025)
